# Assay results from PMC12198407, “Preclinical and first-in-human of purinostat mesylate, a novel selective HDAC I/IIb inhibitor, in relapsed/refractory multiple myeloma and lymphoma” (Signal Transduction and Targeted Therapy, 2025).
# Entries after “also recorded” stand apart in the source; their conditions may differ. Like-named read-outs stand apart in the source and are kept apart here.
# Key:
# [1] = tested on: double-expressing lymphoma (DEL) PDX; assay: DEL PDX mouse model; type: in vivo, mice; details: 18 days; PM 5 mg/kg or 10 mg/kg
# Procedure: All animal studies were performed in accordance with the guidelines approved by the Institutional Animal Care and Use Committee of Sichuan University, Chengdu, China. Six- to seven-week-old female NOD-SCID mice were purchased from Beijing Vital River Laboratory Animal Technology Co., Ltd. (China). Mice received subcutaneous inoculation with 0.5 × 10^7 MM1S or RPMI-8226 cells, to establish xenograft models. Heterotopic PDX models were generated as previously described.[54] When tumors reached 150–250 mm^3, mice were treated with various compounds. PM and panobinostat were administered intravenously three times a week at 5 mg/kg in combination therapy. […] Tumor volume (tumor volume (mm^3) = π/6 × length × width^2) and body weights were measured every two days. At the end, tumor tissues were weighed, and antitumor activity was evaluated by the tumor inhibition rate = (1 − tumor weight of treatment group/tumor weight of vehicle group) × 100%.
# [2] = molecular target: human ether-à-go-go-related gene (hERG) channel (Homo sapiens, UniProt Q12809); assay: hERG inhibition; type: biochemical
# [3] = tested on: cMYC-KRAS12V plasmacytoma; assay: cMYC-KRAS12V primary plasmacytoma (PCT) mouse model; type: in vivo, BALB/c mice
# Procedure: The cMYC-KRAS12V-induced plasmacytoma mouse model in BALB/c (GemPharmatech Co., Ltd., Nanjing, China) was established as previously described.[33] On day 28 or 35 post bone marrow transplantation, recipients received various treatments. The 5TMM mouse model was established as previously described.[55] The 5TGM1-luc cells were intravenously injected into 6-week-old C57BL/KawRij mice (Harlan Co. Netherlands) with 2 × 10^6 cells per mouse. After three weeks, mice were treated with vehicle or PM 10 mg/kg. Serum Ca^2+ levels were monitored weekly for three weeks after the start of administration. Kaplan-Meier survival curves were generated for each treatment group. Additionally, the 5TMM mouse model studying PM’s effects on immune response and bone destruction involved randomizing mice into vehicle and PM (10 mg/kg) groups one week after inoculation. T cell subsets were analyzed by flow cytometry 24 h after a single dose and 1 month after vehicle or PM treatment. The mice were sacrificed after 1 month of treatment, and the bone destruction was detected by Micro-CT.
# [4] = Body weight of MM1S xenograft, DEL and r/r DLBCL PDX mice; type: in vivo; details: treatment groups of the mouse models
# Procedure: Mice received subcutaneous inoculation with 0.5 × 10^7 MM1S or RPMI-8226 cells, to establish xenograft models. […] When tumors reached 150–250 mm^3, mice were treated with various compounds. PM and panobinostat were administered intravenously three times a week at 5 mg/kg in combination therapy. […] Tumor volume (tumor volume (mm^3) = π/6 × length × width^2) and body weights were measured every two days.
# Mice were weighed every two days. All data are represented as mean ± SEM.
# [5] = Pharmacokinetics and tissue distribution in Ighmyc mice; type: in vivo
# Description: In B cell-related tumors, the mechanism of disease often involves the translocation of the MYC oncogene to the immunoglobulin promoter region, leading to its hyperactivation. The translocation of the MYC gene to the IGH enhancer (t(8;14) (q24;q32)) is a molecular hallmark of Burkitt lymphoma. The Ighmyc (Eμ-myc) mouse model successfully mimics this pathogenic mechanism by translocating the MYC oncogene to the immunoglobulin μ enhancer. […] We isolated bone marrow and enlarged spleen from diseased Ighmyc mice and transplanted them into normal C57 mice via tail vein injection to induce a primary B cell lymphoma model. This study aims to investigate the pharmacokinetic characteristics and tissue distribution of Purinostat Mesylate in plasma and target organs in the context of primary B cell lymphoma.
# (§1) The mean residence times (MRT) were 6.00 ± 1.00 h, 24.8 ± 1.03 h, and 23.4 ± 3.59 h, respectively. […] However, in Ighmyc mice, the plasma drug concentration after the same duration was 7.11 ± 3.15 ng/mL. […] The pharmacokinetic characteristics support the notion that spaced dosing of the drug can still maintain favorable pharmacodynamic outcomes.
# [6] = tested on: human liver cells; assay: Cytotoxicity on donor liver cells; type: cell-based
# [7] = molecular target: T1, CYP2C19 (Homo sapiens, UniProt P33261); assay: CYP inhibition, human liver microsomes; type: in vitro ADME
# T1 construct: human liver microsomal cytochrome P450 isoenzymes; from tissue; host or cells: human liver microsomes
# [8] = tested on: class IIb HDAC substrate α-tubulin in SUDHL-6, Daudi, Raji, Ramos, RPMI-8226; assay: Cellular acetylation of α-tubulin; type: cell-based, human
# Description: The results of these cell experiments were consistent with the in vitro enzyme activity assay results.
# [9] = molecular target: T2, CYP1A2 (Homo sapiens, UniProt P05177); assay: CYP inhibition, human liver microsomes; type: in vitro ADME
# T2 construct: human liver microsomal cytochrome P450 isoenzymes; from tissue; host or cells: human liver microsomes
# [10] = Systemic active allergic test; type: in vivo, guinea pigs; details: 0.204 and 0.612 mg/mL
# Procedure: This experiment included a negative control group, a positive control group, a blank formulation group of injectable Purinostat Mesylate, and low and high dose groups of injectable Purinostat Mesylate, with 6 British guinea pigs in each group, evenly divided by sex. During the sensitization phase, the low and high dose groups received intravenous injections of 0.204 mg/mL and 0.612 mg/mL of injectable Purinostat Mesylate (1 and 3 times the maximum intended clinical concentration, respectively) at a volume of 0.5 mL per guinea pig. The blank formulation group received intravenous injections of the excipient in the same volume as the high dose group. The negative control group received an equal volume of 0.9% sodium chloride injection, while the positive control group received an intraperitoneal injection of 4 mg of ovalbumin solution per guinea pig. Sensitization was performed once every other day for a total of 3 consecutive sensitizations. On days 14 and 21 after the last sensitization, each group received an intravenous injection of 2 times the sensitizing dose to provoke an allergic response. Reactions and mortality were observed 30 minutes after the provocation injection.
# [11] = Plasma level in wild-type mice; type: in vivo; details: single i.v. 5 mg/kg, listed as Purinostat Mesylate
# Procedure: as §1
# Sequence of human ether-à-go-go-related gene (hERG) channel (Q12809 whole entry): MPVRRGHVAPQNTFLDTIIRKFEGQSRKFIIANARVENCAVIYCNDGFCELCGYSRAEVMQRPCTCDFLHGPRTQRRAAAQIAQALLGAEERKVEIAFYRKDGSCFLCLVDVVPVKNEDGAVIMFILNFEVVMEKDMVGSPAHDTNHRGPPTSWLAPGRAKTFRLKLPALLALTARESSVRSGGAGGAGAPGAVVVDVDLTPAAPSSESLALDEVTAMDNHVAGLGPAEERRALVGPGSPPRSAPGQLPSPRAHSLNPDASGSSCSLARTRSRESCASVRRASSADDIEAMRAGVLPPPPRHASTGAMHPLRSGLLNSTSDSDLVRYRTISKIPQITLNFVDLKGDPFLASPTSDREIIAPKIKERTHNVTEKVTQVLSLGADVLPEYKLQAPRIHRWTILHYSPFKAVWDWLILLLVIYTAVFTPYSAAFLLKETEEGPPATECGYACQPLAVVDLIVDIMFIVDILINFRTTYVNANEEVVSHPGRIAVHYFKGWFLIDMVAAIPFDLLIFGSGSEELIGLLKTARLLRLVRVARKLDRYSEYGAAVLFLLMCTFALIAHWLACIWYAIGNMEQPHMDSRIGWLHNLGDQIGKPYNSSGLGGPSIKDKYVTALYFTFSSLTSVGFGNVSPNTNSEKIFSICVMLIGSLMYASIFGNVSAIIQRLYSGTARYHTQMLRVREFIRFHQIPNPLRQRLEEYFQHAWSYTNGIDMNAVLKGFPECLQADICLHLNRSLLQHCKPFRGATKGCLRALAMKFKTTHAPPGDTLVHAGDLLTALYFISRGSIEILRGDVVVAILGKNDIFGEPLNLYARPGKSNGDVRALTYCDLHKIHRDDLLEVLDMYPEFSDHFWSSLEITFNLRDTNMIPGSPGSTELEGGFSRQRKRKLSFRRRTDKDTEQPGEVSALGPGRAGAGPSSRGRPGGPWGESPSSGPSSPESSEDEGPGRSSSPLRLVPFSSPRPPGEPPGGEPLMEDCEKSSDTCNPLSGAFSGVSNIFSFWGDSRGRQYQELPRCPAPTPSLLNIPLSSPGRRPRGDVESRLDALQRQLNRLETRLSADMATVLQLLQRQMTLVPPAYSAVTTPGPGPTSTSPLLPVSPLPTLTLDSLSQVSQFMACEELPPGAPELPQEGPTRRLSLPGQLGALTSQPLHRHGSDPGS
# T2 sequence (P05177 whole entry): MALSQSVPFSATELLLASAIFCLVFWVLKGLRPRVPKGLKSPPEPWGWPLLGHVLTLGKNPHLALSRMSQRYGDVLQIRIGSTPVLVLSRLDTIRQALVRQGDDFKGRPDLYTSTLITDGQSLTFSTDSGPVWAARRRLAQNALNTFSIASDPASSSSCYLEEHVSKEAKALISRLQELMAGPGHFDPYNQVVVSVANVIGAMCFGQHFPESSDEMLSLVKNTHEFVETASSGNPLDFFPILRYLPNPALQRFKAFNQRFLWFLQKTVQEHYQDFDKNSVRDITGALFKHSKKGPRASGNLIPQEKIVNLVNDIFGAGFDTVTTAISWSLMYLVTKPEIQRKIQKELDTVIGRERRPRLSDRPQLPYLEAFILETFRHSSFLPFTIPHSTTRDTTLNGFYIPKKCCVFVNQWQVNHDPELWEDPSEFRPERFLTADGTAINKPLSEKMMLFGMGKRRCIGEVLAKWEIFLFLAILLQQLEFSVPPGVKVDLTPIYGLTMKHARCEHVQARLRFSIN
# T1 sequence (P33261 whole entry): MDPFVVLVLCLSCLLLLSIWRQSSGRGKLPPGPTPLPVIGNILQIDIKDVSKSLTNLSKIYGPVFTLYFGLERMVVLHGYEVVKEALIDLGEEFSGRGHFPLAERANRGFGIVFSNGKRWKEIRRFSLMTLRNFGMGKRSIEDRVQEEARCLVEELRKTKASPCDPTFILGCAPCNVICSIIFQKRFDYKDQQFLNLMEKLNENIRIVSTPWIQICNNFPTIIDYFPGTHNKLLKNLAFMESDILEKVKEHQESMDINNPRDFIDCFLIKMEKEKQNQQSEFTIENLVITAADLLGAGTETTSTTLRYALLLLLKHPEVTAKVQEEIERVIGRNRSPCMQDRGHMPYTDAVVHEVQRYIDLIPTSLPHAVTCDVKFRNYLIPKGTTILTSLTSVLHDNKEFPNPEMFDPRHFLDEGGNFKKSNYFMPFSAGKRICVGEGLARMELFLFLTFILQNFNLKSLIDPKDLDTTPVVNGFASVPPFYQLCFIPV
structure (smiles),measurement,setting,value
"CN(Cc1nc2c(N3CCOCC3)nc(-c3ccc(N)cc3)nc2n1C)c1ncc(C(=O)NO)cn1.CS(=O)(=O)O [PM, 2-(((2-(4-Aminophenyl)-9-methyl-6-(4-morpholinyl)-9H-purine-8-yl)methyl)methylamino)-N-hydroxy-5-pyrimidine-carboxamide Mesylate]",complete remission,[1],all mice achieved complete remission
same,IC50,[2],> 100 µM
same,median survival time (MST),"[3]; 5 mg/kg, vehicle 47 days",68 days
same,median survival time (MST),"[3]; more severe PCT model, from day 35, PM 10 mg/kg, regimens per Table S9",59 days
same,body weight / side effects,[4],no weight loss or other evident side effects
same,abnormal B220+/IgM- cell population in peripheral blood,"[5]; 48 hours after single i.v. 5 mg/kg, untreated 48.9%",about 18.8%
same,AUC(0-t),"[5]; Ighmyc (Eμ-myc), mouse, lymph node, iv, single i.v. 5 mg/kg, read-out: lymph node AUC(0-72h)",16100 ± 2040 ng·h/mL
same,Cmax,"[5]; Ighmyc (Eμ-myc), mouse, lymph nodes, iv, single i.v. 5 mg/kg, read-out: Cmax in lymph nodes",578 ± 153 ng/mL
same,MRT,"[5]; Ighmyc (Eμ-myc), mouse, lymph nodes, iv, single i.v. 5 mg/kg, read-out: MRT in lymph nodes",23.4 ± 3.59 h
same,half-life,"[5]; Ighmyc (Eμ-myc), mouse, lymph nodes, iv, single i.v. 5 mg/kg, read-out: T1/2 in lymph nodes (converted)",21.9 ± 10.2 h
same,concentration at 48 h,"[5]; Ighmyc (Eμ-myc), mouse, lymph nodes, iv, single i.v. 5 mg/kg, read-out: concentration in lymph nodes at 48 hours",178 ± 46 ng/mL
same,Cmax,"[5]; Ighmyc (Eμ-myc), mouse, plasma, iv, single i.v. 5 mg/kg, read-out: Cmax in plasma",304 ± 277 ng/mL
same,MRT,"[5]; Ighmyc (Eμ-myc), mouse, plasma, iv, single i.v. 5 mg/kg, read-out: MRT in plasma",6 ± 1 h
same,half-life,"[5]; Ighmyc (Eμ-myc), mouse, plasma, iv, single i.v. 5 mg/kg, read-out: T1/2 in plasma (converted)",12.2 ± 2.1 h
same,AUC(0-t),"[5]; Ighmyc (Eμ-myc), mouse, plasma, iv, single i.v. 5 mg/kg, read-out: plasma AUC(0-48h)",875 ± 437 ng·h/mL
same,concentration at 24 h,"[5]; Ighmyc (Eμ-myc), mouse, plasma, iv, single i.v. 5 mg/kg, read-out: plasma drug concentration at 24 hours",7.11 ± 3.15 ng/mL
same,Cmax,"[5]; Ighmyc (Eμ-myc), mouse, spleen, iv, single i.v. 5 mg/kg, read-out: Cmax in spleen",410 ± 69.9 ng/mL
same,MRT,"[5]; Ighmyc (Eμ-myc), mouse, spleen, iv, single i.v. 5 mg/kg, read-out: MRT in spleen",24.8 ± 1.03 h
same,half-life,"[5]; Ighmyc (Eμ-myc), mouse, spleen, iv, single i.v. 5 mg/kg, read-out: T1/2 in spleen (converted)",20.8 ± 7.94 h
same,concentration at 48 h,"[5]; Ighmyc (Eμ-myc), mouse, spleen, iv, single i.v. 5 mg/kg, read-out: concentration in spleen at 48 hours",134 ± 18.5 ng/mL
same,AUC(0-t),"[5]; Ighmyc (Eμ-myc), mouse, spleen, iv, single i.v. 5 mg/kg, read-out: spleen AUC(0-72h)",12500 ± 244 ng·h/mL
same,plasma drug concentration at 24 hours,"[5]; single i.v. 5 mg/kg, listed as Purinostat Mesylate, 5 mg/kg",7.11 ng/mL
same,cytotoxicity on donor liver cells,[6],exhibited cytotoxic effects on donor liver cells at concentrations up to 5.00 μM
same,IC50,[7],> 10 µM
same,concentration inducing increased acetylation of α-tubulin,[8],3 to 10 nM
same,IC50,[9],> 10 µM
same,systemic active allergic test outcome,[10],negative
same,plasma drug concentration at 24 hours,[11],no drug concentration was detected in the plasma at 24 hours; also recorded: no drug concentration was detectable in plasma after 24 hours; also recorded: undetectable
